According to US6835847B2, “Phthalic acid diamide, method for the production thereof and the use of the same as a pesticide” (Bayer CropScience AG, priority 2001, dated 2004):
Values joined by “and” are separate entries in the source; they are usually repeats but may differ in a detail not shown here. Equal values may be shown once.

system: caterpillars of the diamond back moth (Plutella xylostella, sensitive strain); experiment: Plutella test, sensitive strain (cabbage leaves dipped); type: in vivo; details: 500 ppm active compound
Method: Plutella Test, Sensitive Strain
(§1) To produce a suitable preparation of active compound, 1 part by weight of active compound is mixed with the stated amounts of solvent and emulsifier, and the concentrate is diluted with emulsifier-containing water to the desired concentration.
Cabbage leaves (Brassica oleracea) are treated by being dipped into the preparation of active compound of the desired concentration and are populated with caterpillars of the diamond back moth (Plutella xylostella, sensitive strain) while the leaves are still moist.
(§2) After the desired period of time, the kill in % is determined. 100% means that all caterpillars have been killed; 0% means that none of the caterpillars have been killed.

Compound | Kill rate in % after 7 d [%]
Cc1cc(C(F)(C(F)(F)F)C(F)(F)F)ccc1NC(=O)c1c(Cl)cccc1C(=O)NC(C)CSC[Si](C)(C)C (stereo not shown) [drawing 40] | 100
Cc1cc(C(F)(C(F)(F)F)C(F)(F)F)ccc1NC(=O)c1cccc(Cl)c1C(=O)NC(C)CSC[Si](C)(C)C (stereo not shown) [drawing 41] | 100
Cc1cc(C(F)(C(F)(F)F)C(F)(F)F)ccc1NC(=O)c1c(I)cccc1C(=O)NC(C)CSC[Si](C)(C)C (stereo not shown) [drawing 42] | 100
Cc1cc(C(F)(C(F)(F)F)C(F)(F)F)ccc1NC(=O)c1cccc(I)c1C(=O)NC(C)CSC[Si](C)(C)C (stereo not shown) [drawing 43] | 100

system: larvae of the mustard beetle (Phaedon cochleariae); experiment: Phaedon larvae test (cabbage leaves dipped); type: in vivo; details: 500 ppm active compound
Method: as §1
Cabbage leaves (Brassica oleracea) are treated by being dipped into the preparation of active compound of the desired concentration and are populated with larvae of the mustard beetle (Phaedon cochleariae) while the leaves are still moist.
After the desired period of time, the kill in % is determined. 100% means that all beetle larvae have been killed; 0% means that none of the beetle larvae have been killed.

Compound | Kill rate in % after 7 d [%]
Cc1cc(C(F)(C(F)(F)F)C(F)(F)F)ccc1NC(=O)c1c(Cl)cccc1C(=O)NC(C)CSC[Si](C)(C)C (stereo not shown) [drawing 35] | 90
Cc1cc(C(F)(C(F)(F)F)C(F)(F)F)ccc1NC(=O)c1cccc(Cl)c1C(=O)NC(C)CSC[Si](C)(C)C (stereo not shown) [drawing 36] | 100
Cc1cc(C(F)(C(F)(F)F)C(F)(F)F)ccc1NC(=O)c1cccc(I)c1C(=O)NC(C)CSC[Si](C)(C)C (stereo not shown) [drawing 37] | 100
Cc1cc(Oc2ccc(C(F)(F)F)cc2)ccc1NC(=O)c1cccc(I)c1C(=O)NC(C)CSC[Si](C)(C)C (stereo not shown) [drawing 38] | 100
Cc1cc(Oc2ccc(C(F)(F)F)cc2)ccc1NC(=O)c1cccc(Cl)c1C(=O)NC(C)CSC[Si](C)(C)C (stereo not shown) [drawing 39] | 100

system: caterpillars of the army worm (Spodoptera frugiperda); experiment: Spodoptera frugiperda test (cabbage leaves dipped); type: in vivo; details: 168 h, 500 ppm active compound, after 7 d, read-out: Kill rate in % after 7 d
Method: Spodoptera frugiperda Test
as §1
Cabbage leaves (Brassica oleracea) are treated by being dipped into the preparation of active compound of the desired concentration and are populated with caterpillars of the army worm (Spodoptera frugiperda) while the leaves are still moist.
as §2

Compound | pest or weed control at 500 ppm [%]
Cc1cc(C(F)(C(F)(F)F)C(F)(F)F)ccc1NC(=O)c1c(Cl)cccc1C(=O)NCC(C)(C)O[Si](C)(C)C | 100
Cc1cc(C(F)(C(F)(F)F)C(F)(F)F)ccc1NC(=O)c1cccc(Cl)c1C(=O)NC[Si](C)(C)C | 100
Cc1cc(C(F)(C(F)(F)F)C(F)(F)F)ccc1NC(=O)c1cccc(Cl)c1C(=O)NCC(C)(C)O[Si](C)(C)C | 100
Cc1cc(Oc2ccc(C(F)(F)F)cc2)ccc1NC(=O)c1c(I)cccc1C(=O)NC(C)CSC[Si](C)(C)C (stereo not shown) | 100
Cc1cc(Oc2ccc(C(F)(F)F)cc2)ccc1NC(=O)c1c(Cl)cccc1C(=O)NC(C)CSC[Si](C)(C)C (stereo not shown) | 100
Cc1cc(-c2nnn(C(C)(C)C)n2)ccc1NC(=O)c1cccc(I)c1C(=O)NC(C)CSC[Si](C)(C)C (stereo not shown) | 100
Cc1cc(C(F)(C(F)(F)F)C(F)(F)F)ccc1NC(=O)c1c(Cl)cccc1C(=O)NC(C)CSC[Si](C)(C)C (stereo not shown) [drawing 52] | 100
Cc1cc(C(F)(C(F)(F)F)C(F)(F)F)ccc1NC(=O)c1cccc(Cl)c1C(=O)NC(C)CSC[Si](C)(C)C (stereo not shown) [drawing 54] | 100
Cc1cc(C(F)(C(F)(F)F)C(F)(F)F)ccc1NC(=O)c1c(I)cccc1C(=O)NC(C)CSC[Si](C)(C)C (stereo not shown) [drawing 55] | 100
Cc1cc(C(F)(C(F)(F)F)C(F)(F)F)ccc1NC(=O)c1cccc(I)c1C(=O)NC(C)CSC[Si](C)(C)C (stereo not shown) [drawing 56] | 100
Cc1cc(Oc2ccc(C(F)(F)F)cc2)ccc1NC(=O)c1cccc(I)c1C(=O)NC(C)CSC[Si](C)(C)C (stereo not shown) [drawing 57] | 100
Cc1cc(Oc2ccc(C(F)(F)F)cc2)ccc1NC(=O)c1cccc(Cl)c1C(=O)NC(C)CSC[Si](C)(C)C (stereo not shown) [drawing 58] | 100

system: caterpillars of the army worm (Spodoptera exigua); experiment: Spodoptera exigua test (cabbage leaves dipped); type: in vivo; details: 500 ppm active compound
Method: as §1
Cabbage leaves (Brassica oleracea) are treated by being dipped into the preparation of active compound of the desired concentration and are populated with caterpillars of the army worm (Spodoptera exigua) while the leaves are still moist.
as §2

Compound | Kill rate in % after 7 d [%]
Cc1cc(C(F)(C(F)(F)F)C(F)(F)F)ccc1NC(=O)c1c(Cl)cccc1C(=O)NC(C)CSC[Si](C)(C)C (stereo not shown) [drawing 46] | 100
Cc1cc(C(F)(C(F)(F)F)C(F)(F)F)ccc1NC(=O)c1cccc(Cl)c1C(=O)NC(C)CSC[Si](C)(C)C (stereo not shown) [drawing 47] | 100
Cc1cc(C(F)(C(F)(F)F)C(F)(F)F)ccc1NC(=O)c1c(I)cccc1C(=O)NC(C)CSC[Si](C)(C)C (stereo not shown) [drawing 48] | 100
Cc1cc(C(F)(C(F)(F)F)C(F)(F)F)ccc1NC(=O)c1cccc(I)c1C(=O)NC(C)CSC[Si](C)(C)C (stereo not shown) [drawing 49] | 100

system: caterpillars of the diamond back moth (Plutella xylostella, resistant strain); experiment: Plutella test, resistant strain (cabbage leaves dipped); type: in vivo; details: 500 ppm active compound
Method: Plutella Test, Resistant Strain
as §1
Cabbage leaves (Brassica oleracea) are treated by being dipped into the preparation of active compound of the desired concentration and are populated with caterpillars of the diamond back moth (Plutella xylostella, resistant strain) while the leaves are still moist.
as §2

Compound | Kill rate in % after 7 d [%]
Cc1cc(C(F)(C(F)(F)F)C(F)(F)F)ccc1NC(=O)c1c(Cl)cccc1C(=O)NC(C)CSC[Si](C)(C)C (stereo not shown) [drawing 44] | 100
Cc1cc(C(F)(C(F)(F)F)C(F)(F)F)ccc1NC(=O)c1cccc(Cl)c1C(=O)NC(C)CSC[Si](C)(C)C (stereo not shown) [drawing 45] | 100

system: not listed separately; experiment: logP determination by HPLC (reversed-phase C18), EEC directive 79/831 Annex V.A8; type: physicochemical; details: pH 2.3, 0.1% aqueous phosphoric acid/acetonitrile gradient, 43° C.
Method: The stated logP values were determined in accordance with EEC directive 79/831 Annex V.A8 by HPLC (High Performance Liquid Chromatography) using a reversed-phase column (C 18). Temperature: 43° C.
In the acidic range, the determination was carried out at pH 2.3 using the mobile phases 0.1% aqueous phosphoric acid and acetonitrile; linear gradient from 10% acetonitrile to 90% acetonitrile.
Calibration was carried out using unbranched alkan-2-ones (having 3 to 16 carbon atoms) with known logP values (determination of the logP values by the retention times using linear interpolation between two successive alkanones.

Compound | log P (pH 2.3)
3-Chloro-N^1-[2-methyl-4-(1,1,2,2-tetrafluoroethoxy)phenyl]-N^2-[(trimethylsilyl)methyl]phthalamide (Isomer 1) and 3-chloro-N^2-[2-methyl-4-(1,1,2,2-tetrafluoroethoxy)phenyl]-N^1-[(trimethylsilyl)methyl]phthalamide (Isomer 2) [Example 2 Isomer Mixture] | 3.59 and 3.69

same assay, conditions: pH 2.3, 0.1% aqueous phosphoric acid/acetonitrile gradient, 43° C., read-out: log P (pH 2.3)

Compound | chromatographic logP
Cc1cc(C(F)(C(F)(F)F)C(F)(F)F)ccc1NC(=O)c1c(Cl)cccc1C(=O)NC(C)CSC[Si](C)(C)C (single isomer, unassigned) [Example 1 Isomer 1, 3-Chloro-N^2-{2-methyl-4-[1,2,2,2-tetrafluoro-1-(trifluoromethyl)ethyl]phenyl}-N^1-(1-methyl-2-{[(trimethylsilyl)methyl]sulphanyl}ethyl)phthalamide] | 5.38
Cc1cc(C(F)(C(F)(F)F)C(F)(F)F)ccc1NC(=O)c1cccc(Cl)c1C(=O)NC(C)CSC[Si](C)(C)C (single isomer, unassigned) [Example 1 Isomer 2, 3-Chloro-N^1-{2-methyl-4-[1,2,2,2-tetrafluoro-1-(trifluoromethyl)ethyl]phenyl}-N^2-(1-methyl-2-{[(trimethylsilyl)methyl]sulphanyl}ethyl)phthalamide] | 5.56
Cc1cc(C(F)(C(F)(F)F)C(F)(F)F)ccc1NC(=O)c1cccc(Cl)c1C(=O)NCC(C)(C)O[Si](C)(C)C (single isomer, unassigned) [Example 3 Isomer 1, 3-Chloro-N^1-{2-methyl-4-[1,2,2,2-tetrafluoro-1-(trifluoromethyl)ethyl]phenyl}-N^2-{2-methyl-2-[(trimethylsilyl)oxy]propyl}phthalamide] | 3.11
Cc1cc(C(F)(C(F)(F)F)C(F)(F)F)ccc1NC(=O)c1c(Cl)cccc1C(=O)NCC(C)(C)O[Si](C)(C)C (single isomer, unassigned) [Example 3 Isomer 2, 3-Chloro-N^2-{2-methyl-4-[1,2,2,2-tetrafluoro-1-(trifluoromethyl)ethyl]phenyl}-N^1-{2-methyl-2-[(trimethylsilyl)oxy]propyl}phthalamide] | 3.19
CC(N)CSC[Si](C)(C)C (stereo not shown) [1-{[(trimethylsilyl)methyl]sulphanyl}-2-propanamide] | 1.28

system: Heliothis virescens caterpillars; experiment: Heliothis virescens test (soybean shoots dipped); type: in vivo; details: 500 ppm active compound
Method: as §1
Soybean shoots (Glycine max) are treated by being dipped into the preparation of active compound of the desired concentration and are populated with Heliothis virescens caterpillars while the leaves are still moist.
as §2

Compound | Kill rate in % after 7 d [%]
Cc1cc(C(F)(C(F)(F)F)C(F)(F)F)ccc1NC(=O)c1c(Cl)cccc1C(=O)NC(C)CSC[Si](C)(C)C (stereo not shown) [drawing 31] | 100
Cc1cc(C(F)(C(F)(F)F)C(F)(F)F)ccc1NC(=O)c1cccc(Cl)c1C(=O)NC(C)CSC[Si](C)(C)C (stereo not shown) [drawing 32] | 100
Cc1cc(C(F)(C(F)(F)F)C(F)(F)F)ccc1NC(=O)c1c(I)cccc1C(=O)NC(C)CSC[Si](C)(C)C (stereo not shown) [drawing 33] | 100
Cc1cc(C(F)(C(F)(F)F)C(F)(F)F)ccc1NC(=O)c1cccc(I)c1C(=O)NC(C)CSC[Si](C)(C)C (stereo not shown) [drawing 34] | 100
